Source: patent US6436978B1, “Guanidinylamino heterocycle compounds useful as α-2 adrenoceptor agonists” (The Procter & Gamble Co., priority 1996, dated 2002)

Assays:
patient with glaucoma = test: Topical ophthalmic composition given to a patient with glaucoma, intraocular pressure; assay type: in vivo, human; details: Example G topical ophthalmic composition 0.10 % w/v, one-tenth of a mL into each eye
Protocol: One-tenth of a mL of the composition is administered directly into each eye of a patient with glaucoma.

[1] = system: human subject suffering from septic or cardiogenic shock; test: Intravenous solution given to a human subject suffering from septic or cardiogenic shock; assay type: in vivo; details: Example T solution 10 mg/ml carrier, approximately 2.0 ml intravenously
Protocol: The above ingredients are mixed, forming a solution. Approximately 2.0 ml of the solution is administered, intravenously, to a human subject suffering from septic or cardiogenic shock.

[2] = system: patient with nasal congestion; test: Composition given to a patient with nasal congestion; assay type: in vivo, human
Protocol: One tablet is swallowed by a patient with nasal congestion.
One tablet is chewed and swallowed by a patient with nasal congestion.
One tablet is placed under the tongue of a patient with nasal congestion and allowed to dissolve.
One-tenth of a mL of the composition is sprayed from a pump actuator into each nostril of a patient with nasal congestion.
One-fifth of a mL of the composition is applied as drops from a dropper into each nostril of a patient with nasal congestion.
One 15 mL dose of the alcohol-free liquid medication is swallowed by a patient with nasal congestion.

patient with migraine = test: Oral tablet given to a patient with migraine; assay type: in vivo, human; details: Example K oral tablet, 4 mg per tablet, one tablet swallowed
Text: One tablet is swallowed by a patient with migraine.

patient with asthma = test: Inhalation aerosol given to a patient with asthma; assay type: in vivo, human; details: Example F inhalation aerosol 5.0 % w/v, two puffs from a metered-dose inhaler
Text: Two-puffs of the aerosol composition is inhaled from a metered-dose inhaler by a patient with asthma.

[3] = system: patient with nasal congestion and runny nose due to allergic rhinitis; test: Oral liquid given to a patient with nasal congestion and runny nose due to allergic rhinitis; assay type: in vivo, human; details: Example H oral liquid, 15 mg with chlorpheniramine maleate 4 mg per 15 mL dose, one dose swallowed
Protocol: One 15 mL dose of the liquid composition is swallowed by a patient with nasal congestion and runny nose due to allergic rhinitis.

## Cc1c(NNC(=N)N)ccc2cccnc12 [Example 1, [(8-Methylquinolin-7-yl)amino]guanidine]
Patient with glaucoma
  intraocular pressure: substantially reduced
[1]
  symptoms of septic or cardiogenic shock: symptoms subside
[2]; Example B chewable tablet, 15.0 mg per tablet, one tablet chewed and swallowed
  nasal congestion: substantially reduced
[2]; Example D intranasal solution 0.20 % w/v, one-tenth of a mL sprayed into each nostril
  nasal congestion: substantially diminished
[2]; Example E intranasal gel 0.10 % w/v, one-fifth of a mL as drops into each nostril
  nasal congestion: substantially reduced
Patient with migraine
  pain and aura of migraine: substantially diminished

## [(4-Methylbenzimidazol-5-yl)amino]guanidine [Example 2]
Patient with asthma
  asthmatic condition: effectively relieved
[3]
  congestion and runny nose: effectively reduced
[2]; Example A oral tablet, 20.0 mg per tablet, one tablet swallowed
  nasal congestion: substantially diminished
[2]; Example C sublingual tablet, 2.00 mg per tablet, one tablet under the tongue
  nasal congestion: rapidly and substantially diminished
[2]; Example J alcohol-free oral liquid, 30 mg per 15 mL dose, one dose swallowed
  nasal congestion: substantially diminished
